Assay results reported in PubChem BioAssay (NCI).
Where “and” joins values, the source holds several entries; their conditions need not be identical. Identical values can stand only once.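 Growth conditions: 96-well plates. Treatment: test compound, 48 hours, 5 concentrations. Analysis: linear interpolation between bracketing concentrations; unreached endpoints set to highest concentration. At the GI50, growth is halved. TGI denotes the concentration required for complete inhibition of growth.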

Assays:
Assay in all cases: growth of human tumour cells (NCI), 48 h
[1] = system: HT29 colon
[2] = system: DLD-1 colon
[3] = system: NCI-H23 lung
[4] = system: SNB-19 CNS
[5] = system: NCI-H226 lung
[6] = system: KM12 colon
[7] = system: A549 NSCLC
[8] = system: M19-MEL melanoma
[9] = system: SR leukemia
[10] = system: MDA-MB-231 breast

Structure (SMILES) | TGI [1] [µM] | TGI [2] [µM] | TGI [3] | TGI [4] | TGI [5] | TGI [6] | TGI [7] | TGI [8] [µM] | TGI [9] [µM] | GI50 [1] | GI50 [3] | GI50 [4] | GI50 [5] | GI50 [6] | GI50 [7] | GI50 [9] | GI50 [10] | TGI [10]
O=c1[nH]nc2ccccc2c1Cc1ccccc1 | > 100 | > 100 | > 100 µM | > 100 µM | > 100 µM | > 100 µM | > 100 µM | > 100 | – | – | – | – | – | – | – | – | – | –
c1ccc(C(c2ccccc2)c2cccnc2)cc1 | > 100 | > 100 | > 100 µM | > 100 µM | > 100 µM | > 100 µM | > 100 µM | > 100 | – | – | – | – | – | – | – | – | – | –
COc1cc([C@@H]2c3cc4c(cc3[C@@H](OC(=O)c3ccc(N)cc3)C3COC(=O)[C@@H]32)OCO4)cc(OC)c1O (some centres undefined) | 21.2 | > 95 | 14.4 µM | > 95 µM | 33.6 µM | 44.7 µM | 28.1 µM | > 95 | – | – | – | – | – | – | – | – | – | –
C[C@]12CCC(=O)C=C1CC[C@@H]1C2CC[C@]2(C)Nc3c(cnn3-c3ccccc3)CC12 (some centres undefined) | > 100 | > 100 | > 100 µM | – | > 100 µM | > 10 µM | > 100 µM | > 100 | – | – | – | – | – | – | – | – | – | –
COCC(O)Cn1ccnc1[N+](=O)[O-] (centres undefined) | > 100 | – | > 100 µM | > 100 µM | > 100 µM | > 100 µM | > 100 µM | > 100 | > 100 | – | – | – | – | – | – | – | – | –
CCOC1=C2C(=O)OC(=O)C2C2CCCCC2=C1 (centres undefined) | > 100 | > 100 | > 100 µM | > 100 µM | – | > 100 µM | > 100 µM | > 100 | – | – | – | – | – | – | – | – | – | –
CC(C)CCCC(C)[C@H]1CCC2[C@@H]3CCC4Nc5nocc5C[C@]4(C)C3CC[C@@]21C (some centres undefined) | 37.1 | 41 | 31.4 µM | 37.5 µM | 37.3 µM | 38.4 µM | 54.8 µM | 33.7 | – | – | – | – | – | – | – | – | – | –
OCC1C(/C=C/c2ccoc2)ON2CCCC12 (centres undefined) | > 100 | > 100 | > 100 µM | > 100 µM | > 100 µM | > 100 µM | > 100 µM | > 100 | – | – | – | – | – | – | – | – | – | –
O=C1NC2(CCCCCC2)C2CCCCCCC12O (centres undefined) | > 100 | > 100 | > 100 µM | > 100 µM | – | > 100 µM | > 100 µM | > 100 | > 100 | – | – | – | – | – | – | – | – | –
C=CCNC(=O)N(CCCC(NC(C)=O)C(=O)NCc1ccccc1)Cc1ccccc1 (centres undefined) | > 100 | – | > 100 µM | > 100 µM | > 100 µM | > 100 µM | > 100 µM | > 100 | – | – | – | – | – | – | – | – | – | –
CNCCCn1c2c(c3ccc([N+](=O)[O-])cc3c1=O)C(=O)c1cc(OC)cnc1-2 | 0.38 | – | 0.267 µM | 2.07 µM | 0.245 µM | 0.593 µM | 0.359 µM | – | 1.75 | 0.0558 µM | 0.04 µM | 0.0394 µM | 0.0946 µM | 0.162 µM | 0.0696 µM | 0.0123 µM | 0.265 µM | 1.72 µM
CC1(N)CCN(c2cccnc2NC(=O)c2nc(-c3ncccc3C(F)(F)F)cnc2N)CC1 | > 100 | – | > 100 µM | > 100 µM | > 100 µM | > 100 µM | > 100 µM | – | 35.5 | 19.6 µM | 49.5 µM | 50 µM | 35.9 µM | 0.413 µM | 22 µM | 3.3 µM | 27.8 µM | > 100 µM
O=C(NC(=O)c1cn(CCN(CCO)C(=O)NCCCCCCNC(=O)N(CCO)CCn2cc(C(=O)NC(=O)OCc3ccccc3)c(=O)[nH]c2=O)c(=O)[nH]c1=O)OCc1ccccc1 | > 100 | > 100 | > 100 µM | > 100 µM | – | – | > 100 µM | > 100 | – | – | – | – | – | – | – | – | – | –
COc1ccc2c(c1)nnn1c3ncccc3c(N=O)c21 | – | – | 13.5 µM and 6.43 µM | 16.2 µM and 34.2 µM | 13.1 µM and 47.7 µM | 6.91 µM and 13.5 µM | 50 µM and 15.7 µM | – | – | 0.622 µM and 1.2 µM | 5.17 µM and 1.84 µM | 6.28 µM and 11.8 µM | 4.14 µM and 11.6 µM | 1.03 µM and 3.02 µM | 10.8 µM and 3.87 µM | 0.00899 µM and 0.0247 µM | 1.26 µM and 1.88 µM | 12.7 µM and 6.41 µM
O=c1c2ccccc2c(=O)n2n1CC=CC2 | > 100 | > 100 | > 100 µM | > 100 µM | > 100 µM | > 100 µM | > 100 µM | > 100 | – | – | – | – | – | – | – | – | – | –
O=C(Nc1cccc(-n2cc(-c3ccncc3)c(-c3cc(O)cc(Cl)c3)n2)c1)Nc1ccc(Cl)c(C(F)(F)F)c1 | 4.58 | – | 7.45 µM | 16.6 µM | 8.96 µM | 9.86 µM | 9.2 µM | – | 5.18 | 2.12 µM | 2.58 µM | 3.7 µM | 2.47 µM | 2.59 µM | 2.33 µM | 2.01 µM | 1.86 µM | 5.85 µM
COc1ccc2c(c1)[n+]([O-])c(-c1ccc(OC)c(OC)c1)c(N)[n+]2[O-] | > 100 | > 100 | 57 µM | > 100 µM | > 100 µM | > 100 µM | > 100 µM | > 100 | – | – | – | – | – | – | – | – | – | –
O=C1C(N2CC2)=C(N2CC2)C(=O)C(N2CC2)=C1N1CC1 | 15.1 | – | 0.245 µM | 4.32 µM | 0.714 µM | 2.72 µM | 0.428 µM | – | > 100 | 0.181 µM | < 0.0233 µM | 0.14 µM | 0.157 µM | 0.696 µM | 0.059 µM | 0.0345 µM | 14.9 µM | 56.1 µM
C=C1/C(=C\C=C2/CCC[C@]3(C)[C@@H]([C@H](C)CCCC(C)(C)O)CC[C@@H]23)C[C@@H](OC(=O)CBr)C[C@@H]1O | 10.5 | – | 2.31 µM | 24.9 µM | 22.1 µM | 3.03 µM | 31.5 µM | – | 1.5 | 1.15 µM | 0.386 µM | 11.2 µM | 3.74 µM | 0.4 µM | 6.26 µM | 0.0902 µM | 1.39 µM | 5.4 µM
COc1cc(Nc2c(C#N)cnc3cc(OCCCN4CCN(C)CC4)c(OC)cc23)c(Cl)cc1Cl | 5.38 | – | 17.7 µM | 21.1 µM | 34.5 µM | 7.24 µM | 13.5 µM | – | 4.51 | 0.689 µM | 4.55 µM | 9.26 µM | 12.1 µM | 0.331 µM | 2.74 µM | 1.35 µM | 2.76 µM | 7.14 µM
